The record followed here is patent publication US12492181B2, “Gem-disubstituted piperidine melanocortin subtype-2 receptor (MC2R) antagonists and uses thereof” (Crinetics Pharmaceuticals, Inc., priority 2019, dated 2025).

A value given as a limit tells only on which side of the number the result lay.

The target in this experiment is T1, hMC2 receptor (crude hMC2R membranes from CRE-bla-CHO-K1 cells stably expressing hMC2 receptor and hMRAP accessory protein) (Homo sapiens, UniProt Q01718).
T1 construct: crude membrane fractions
T1 sequence (Q01718 whole entry): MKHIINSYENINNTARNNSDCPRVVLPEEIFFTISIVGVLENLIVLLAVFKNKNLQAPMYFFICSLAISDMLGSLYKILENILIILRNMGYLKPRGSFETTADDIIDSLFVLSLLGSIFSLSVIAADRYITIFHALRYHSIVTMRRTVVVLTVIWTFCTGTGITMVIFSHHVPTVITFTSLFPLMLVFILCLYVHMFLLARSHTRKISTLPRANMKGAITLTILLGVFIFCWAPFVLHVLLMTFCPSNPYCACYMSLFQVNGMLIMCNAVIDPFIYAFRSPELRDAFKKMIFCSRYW
T1 sequence (Q8TCY5 whole entry partner): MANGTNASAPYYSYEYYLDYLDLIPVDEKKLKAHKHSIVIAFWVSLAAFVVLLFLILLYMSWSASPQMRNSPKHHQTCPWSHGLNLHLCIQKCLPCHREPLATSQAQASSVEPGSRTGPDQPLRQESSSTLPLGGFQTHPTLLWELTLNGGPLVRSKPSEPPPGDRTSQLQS
In words: hMC2 membrane binding assay ([125I]ACTH (1-39) Tyr23, SPA). The note with it: displacement of 0.2 nM [125I]ACTH (1-39) Tyr23 from hMC2R membranes, 1.5 hours at room temperature; read-out: MC2R binding potency. How it is done:
Crude membrane fractions are prepared from CRE-bla-CHO-K1 cells stably expressing hMC2 receptor and hMRAP accessory protein (Thermo Fisher). The cells are grown to 85-100% confluence on standard tissue culture dishes in GlutaMax DMEM growth media (Gibco) with following additives: 10% dialyzed FBS (Gemini), 0.1 mM NEAA (Gibco), 25 mM HEPES (Gibco), 5 μg/mL blasticidin (Goldbio), 100 μg/mL zeocin (Invitrogen), 600 μg/mL hygromycin (Goldbio). To prepare membranes, cells are scraped and collected in 1× Dulbecco's phosphate buffered saline (Corning) and then pelleted at 1000 RPM's. The cell pellet is reconstituted in membrane preparation buffer (20 mM HEPES, 6 mM MgCl2 and 1 mM EGTA, protease inhibitor tablets (Pierce) adjusted to pH 7.4), homogenized using a dounce homogenizer, and the resulting membrane fraction is pelleted by centrifugation at 12,000 RPM's. The membrane pellet is resuspended in membrane preparation buffer, snap freezed and stored at −80° C. for later use.
Binding Assay for hMC2 Antagonists Protocol:
The hMC2 membrane binding assay utilizes the following components: radiolabel [^125I]ACTH (1-39) Tyr23 (PerkinElmer), wheatgerm agglutinin coated PVT SPA beads (PerkinElmer), crude hMC2R membranes, and compounds. Briefly hMC2R membranes are incubated with SPA beads in binding assay buffer (50 mM HEPES, 5 mM MgCl2, 1 mM CaCl2), 0.20% BSA, protease inhibitor tablets (Pierce) adjusted to pH7.4) prior to assay initiation. […] Assay plates are read using a Top Count NXT and Ki values for compounds are determined using a GraphPad Prism 6 non-linear regression analysis.
In the case of `CN1CC[C@@H](C(=O)NC2(c3ccc(-c4cccn4C)nc3)CCN(c3ccc(C(F)(F)F)cc3C#N)CC2)C1` [Compound 2-47, (3R)—N-{1-[2-cyano-4-(trifluoromethyl)phenyl]-4-[6-(1-methyl-1H-pyrrol-2-yl)pyridin-3-yl]piperidin-4-yl}-1-methylpyrrolidine-3-carboxamide], the Ki is less than 0.01 µM.
For `CCOc1ncccc1-c1ccc(C2(NCCO)CCN(c3ccc(C(F)(F)F)cc3C#N)CC2)cn1` [Compound 2-14, 2-(4-{2′-ethoxy-[2,3′-bipyridin]-5-yl}-4-[(2-hydroxyethyl)amino]piperidin-1-yl)-5-(trifluoromethyl)benzonitrile], the Ki lay in the range of 0.01 to 0.1 µM.
For `CCOc1ccccc1-c1ccc(C2(C(=O)NC3CN(C)C3)CCN(c3ccc(C(F)(F)F)cc3C#N)CC2)cn1` [Compound 1-76, 1-[2-cyano-4-(trifluoromethyl)phenyl]-4-[6-(2-ethoxyphenyl)pyridin-3-yl]-N-(1-methylazetidin-3-yl)piperidine-4-carboxamide], the Ki was less than 0.01 µM.
Regarding `CCOc1ncccc1-c1ccc(C2(C(=O)NC[C@H](CO)NC)CCN(c3ccc(C(F)(F)F)cc3C#N)CC2)cn1` [Compound 1-44, 1-[2-cyano-4-(trifluoromethyl)phenyl]-4-{2′-ethoxy-[2,3′-bipyridin]-5-yl}-N-[(2R)-3-hydroxy-2-(methylamino)propyl]piperidine-4-carboxamide], the Ki was less than 0.01 µM.
With `CCOc1ncccc1-c1ccc(C2(NC(=O)C3CN(C)C3)CCN(c3ccc(C(F)(F)F)cc3C#N)CC2)cc1` [Compound 2-16, N-{1-[2-cyano-4-(trifluoromethyl)phenyl]-4-[4-(2-ethoxypyridin-3-yl)phenyl]piperidin-4-yl}-1-methylazetidine-3-carboxamide], the Ki was 0.01 to 0.1 µM.
Next, `CCOc1ncccc1-c1ccc(C2(C(=O)N[C@H]3CCN(C)C3)CCN(c3ccc(C(C)(F)F)cc3C#N)CC2)cn1` [Compound 1-59, 1-[2-cyano-4-(1,1-difluoroethyl)phenyl]-4-{2′-ethoxy-[2,3′-bipyridin]-5-yl}-N-[(3S)-1-methylpyrrolidin-3-yl]piperidine-4-carboxamide]: less than 0.01 µM.
Consider `CCOc1ncccc1-c1ccc(C2(C(=O)N[C@@H]3CCN(C)C3)CCN(c3ccc(C(F)(F)F)c(Cl)c3)CC2)cc1` [Compound 1-165, 1-[3-chloro-4-(trifluoromethyl)phenyl]-4-[4-(2-ethoxypyridin-3-yl)phenyl]-N-[(3R)-1-methylpyrrolidin-3-yl]piperidine-4-carboxamide], for which the Ki was 0.01 to 0.1 µM.
As to `CCOc1ncccc1-c1ccc(C2(C(=O)N[C@@H]3CCN(C)C3)CCN(c3ccc(C(F)(F)F)cc3C#N)CC2)cn1` [Compound 1-9, 1-[2-cyano-4-(trifluoromethyl)phenyl]-4-{2′-ethoxy-[2,3′-bipyridin]-5-yl}-N-[(3R)-1-methylpyrrolidin-3-yl]piperidine-4-carboxamide], the Ki was less than 0.01 µM.
In the case of `CCOc1ncccc1-c1ccc(C2(C(=O)N[C@@H]3CN4CCC3CC4)CCN(c3ccc(C(F)(F)F)cc3C#N)CC2)cn1` [Compound 1-20, N-[(3S)-1-azabicyclo[2.2.2]octan-3-yl]-1-[2-cyano-4-(trifluoromethyl)phenyl]-4-{2′-ethoxy-[2,3′-bipyridin]-5-yl}piperidine-4-carboxamide], the Ki was less than 0.01 µM.
For the compound `CNCCNC(=O)C1(c2ccc(-c3ccccc3OC)nc2)CCN(c2ccc(C(F)(F)F)cc2C#N)CC1` [Compound 1-214, 1-[2-cyano-4-(trifluoromethyl)phenyl]-4-[6-(2-methoxyphenyl)pyridin-3-yl]-N-[2-(methylamino)ethyl]piperidine-4-carboxamide], the Ki is less than 0.01 µM.
Regarding `CCOc1ncccc1-c1ccc(C2(C(=O)N[C@@H](C)CN(C)C)CCN(c3ccc(Cl)cc3Cl)CC2)cn1` [Compound 1-318, 1-(2,4-dichlorophenyl)-N-[(2S)-1-(dimethylamino)propan-2-yl]-4-{2′-ethoxy-[2,3′-bipyridin]-5-yl}piperidine-4-carboxamide], the Ki was less than 0.01 µM.
